Assays:
Details in all cases: 72 h
Calu-3 [1] = assay: cell viability relative to DMSO; higher = less toxic
Vero E6 [2] = assay: as above
U2OS [3] = assay: as above
Caco-2 [4] = assay: as above
HepG2 [5] = assay: as above
Calu-3 [6] = assay: drug sensitivity score (DSS) for viability; higher = more toxic; extreme values may be limits of the assay
Vero E6 [7] = assay: as above
U2OS [8] = assay: as above
Caco-2 [9] = assay: as above
HepG2 [10] = assay: as above
Calu-3 [11] = assay: relative viability EC50 (midpoint between 100% and the lowest measured viability); higher = less toxic
Vero E6 [12] = assay: as above
U2OS [13] = assay: as above
HepG2 [14] = assay: as above

Row | Structure (SMILES) | cell viability (Calu-3 [1]; 1 nM) | cell viability (Calu-3 [1]; 10 nM) | cell viability (Calu-3 [1]; 100 nM) | cell viability (Calu-3 [1]; 1000 nM) | cell viability (Calu-3 [1]; 10000 nM) | cell viability (Vero E6 [2]; 1 nM) | cell viability (Vero E6 [2]; 10 nM) | cell viability (Vero E6 [2]; 100 nM) | cell viability (Vero E6 [2]; 1000 nM) | cell viability (Vero E6 [2]; 10000 nM) | cell viability (U2OS [3]; 1 nM) | cell viability (U2OS [3]; 10 nM) | cell viability (U2OS [3]; 100 nM) | cell viability (U2OS [3]; 1000 nM) | cell viability (U2OS [3]; 10000 nM) | cell viability (Caco-2 [4]; 1 nM) | cell viability (Caco-2 [4]; 10 nM) | cell viability (Caco-2 [4]; 100 nM) | cell viability (Caco-2 [4]; 1000 nM) | cell viability (Caco-2 [4]; 10000 nM) | cell viability (HepG2 [5]; 1 nM) | cell viability (HepG2 [5]; 10 nM) | cell viability (HepG2 [5]; 100 nM) | cell viability (HepG2 [5]; 1000 nM) | cell viability (HepG2 [5]; 10000 nM) | drug sensitivity score (Calu-3 [6]) | drug sensitivity score (Vero E6 [7]) | drug sensitivity score (U2OS [8]) | drug sensitivity score (Caco-2 [9]) | drug sensitivity score (HepG2 [10]) | relative viability EC50 (Calu-3 [11]) | relative viability EC50 (Vero E6 [12]) | relative viability EC50 (U2OS [13]) | relative viability EC50 (HepG2 [14])
1 | CCn1c(=O)c(-c2ccc(Cl)cc2Cl)cc2cnc(Nc3ccc(N4CCNCC4)c(F)c3)nc21 [FRAX486] | 104% | 100% | 105% | 91.9% | 97.9% | 97% | 102% | 99.6% | 90.9% | 31.7% | 103% | 99.8% | 101% | 91.6% | 43% | 94.9% | 92.4% | 97.7% | 80% | 63.4% | 96.6% | 97.8% | 93.1% | 99.3% | 51.6% | 0 | 5.3 | 4.5 | 3.9 | 2.6 | > 10000 nM | 2090 nM | 2010 nM | 
2 | COc1cc2c(cc1-c1c(C)noc1C)ncc1[nH]c(=O)n([C@H](C)c3ccccn3)c12 [I-BET151] | 97.4% | 99.5% | 114% | 75% | 65.3% | 104% | 105% | 94.6% | 40.5% | 13% | 97.4% | 95.6% | 94.4% | 71.3% | 44.3% | 104% | 87.1% | 89.8% | 81% | 56% | 104% | 99.7% | 91.9% | 60.3% | 33.6% | 4.5 | 12.2 | 6.3 | 4.9 | 8.6 |  | 607 nM | 890 nM | 671 nM
3 | CC[C@H]1[C@@H](O)[C@@H]2[C@H](CC[C@]3(C)[C@@H]([C@H](C)CCOS(=O)(=O)O)CC[C@@H]23)[C@@]2(C)CC[C@@H](O)C[C@@H]12 [INT-767] | 110% | 107% | 108% | 105% | 99.5% |  |  |  |  |  | 102% | 98.1% | 102% | 101% | 101% |  |  |  |  |  | 115% | 118% | 96.2% | 99.4% | 111% | 0 |  | 0 |  | 0 | > 10000 nM |  | > 10000 nM | > 10000 nM
4 | COc1ccc(-c2sc(NC(=O)C(C)(C)C)nc2C)cc1S(=O)(=O)Nc1ccc(O)cc1 [PI4KIII-beta-inhibitor-1] | 115% | 102% | 102% | 91.2% | 66.9% | 102% | 96.4% | 92.9% | 96.1% | 88.8% | 94.9% | 99.6% | 96.7% | 93.1% | 79.1% | 95.6% | 97% | 91.1% | 90.7% | 74.2% | 105% | 103% | 101% | 90% | 87.6% | 2.8 | 0 | 1.1 | 1.8 | 0.5 |  | > 10000 nM | > 10000 nM | > 10000 nM
5 | CC(C)(C)n1nc(-c2ccc(Cl)cc2)c2c(N)ncnc21 [PP-2] | 104% | 104% | 84.9% | 87% | 37% | 99.4% | 93.5% | 102% | 95.6% | 47% | 93.4% | 98.4% | 96.7% | 89.7% | 77.3% | 92.3% | 98.6% | 100% | 88.2% | 54.2% | 107% | 98% | 92.6% | 103% | 90.7% | 5.4 | 3.5 | 1.4 | 4.2 | 0 | 1770 nM | 2490 nM | > 10000 nM | > 10000 nM
6 | COc1ccc(F)c(F)c1C(=O)c1cnc(NC2CCN(S(C)(=O)=O)CC2)nc1N [R547] |  |  |  |  |  |  |  |  |  |  |  |  |  |  |  |  |  |  |  |  |  |  |  |  |  | 9 | 10.7 | 10.3 |  | 16.1 |  |  |  | 
7 | O=C(O)CCCO [SODIUM OXYBATE] | 97.3% | 99% | 94.7% | 115% | 112% | 93.6% | 100% | 99.1% | 102% | 87.2% | 103% | 101% | 103% | 96.4% | 100% |  |  |  |  |  | 82.4% | 105% | 92.8% | 90.8% | 110% | 0 | 0 | 0 |  | 0 | > 10000 nM | > 10000 nM | > 10000 nM | > 10000 nM
8 | NC(=O)[C@H]1CCS[C@@H]2C[C@]3(CCCN3C(=O)Cc3ccc(NC(=O)COc4ccc(Cl)cc4Cl)cc3)C(=O)N12 [ST-2825] | 106% | 96.9% | 96.1% | 99.8% | 91.7% | 101% | 92.2% | 94.8% | 88.1% | 86.6% | 96.4% | 104% | 97.6% | 103% | 55.6% | 84.7% | 90.3% | 91.9% | 92.9% | 56% | 96.5% | 101% | 103% | 91.7% | 40.5% | 0 | 0.5 | 2 | 3.5 | 4.6 | > 10000 nM | > 10000 nM |  | 2050 nM
